Laboratory results: patent US8975398B2, “NAMPT inhibitors” (AbbVie Inc., priority 2012, dated 2015)
pIC50: −log10 of the molar value.

Legend:
[1] = target: NAMPT (human, recombinant, C-terminally His-tagged) (Homo sapiens, UniProt P43490); assay: Time-Resolved Fluorescence Resonance Energy Transfer (TR-FRET) Binding Assay of NAMPT; details: 6.8 nM NAMPT, 200 nM probe, equilibrated 3 hours, absence of substrates
In short: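 Recombinant C-terminally His-tagged human NAMPT (6.8 nM) incubated 3 h at room temperature with 200 nM Oregon Green 488–labelled nicotinamide-competitive probe and 1 nM Tb-anti-His antibody in HEPES pH 7.5, 2% DMSO. TR-FRET ratio Em520/Em495 normalized to controls; IC50 from four-parameter logistic fit.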

NAMPT = NAMPT (Homo sapiens, UniProt P43490); assay: Time-Resolved Fluorescence Resonance Energy Transfer (TR-FRET) Binding Assay of NAMPT with PRPP; details: 2 nM NAMPT, 2 nM probe, 200 uM PRPP and 2.5 mM ATP, equilibrated 16 hours
NAMPT, sequence (P43490 whole entry): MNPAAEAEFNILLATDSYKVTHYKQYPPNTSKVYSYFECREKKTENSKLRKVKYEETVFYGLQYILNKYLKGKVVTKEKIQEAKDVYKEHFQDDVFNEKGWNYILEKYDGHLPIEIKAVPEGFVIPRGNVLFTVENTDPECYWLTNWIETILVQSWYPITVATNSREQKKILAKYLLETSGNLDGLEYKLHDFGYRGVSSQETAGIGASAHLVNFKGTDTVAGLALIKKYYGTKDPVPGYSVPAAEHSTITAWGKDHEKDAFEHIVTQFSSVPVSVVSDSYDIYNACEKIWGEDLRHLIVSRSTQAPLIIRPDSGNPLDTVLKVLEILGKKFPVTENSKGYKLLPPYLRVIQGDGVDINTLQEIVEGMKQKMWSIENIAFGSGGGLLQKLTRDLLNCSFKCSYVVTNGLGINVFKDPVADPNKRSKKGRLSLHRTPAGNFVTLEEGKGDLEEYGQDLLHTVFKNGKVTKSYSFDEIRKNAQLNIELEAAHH
In short: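 Final mix: 2 nM NAMPT, 2 nM probe, 1 nM Tb-anti-His antibody, 200 uM PRPP, 2.5 mM ATP, 2% DMSO in 1× assay buffer. Equilibrated 16 hours before TR-FRET read, allowing possible enzymatic modification of compounds.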

NAMPT (human, recombinant, C-terminally His-tagged), sequence (P43490 whole entry): as above

Compound	pIC50 [1]	pIC50 (NAMPT)
O=C(Nc1ccc(OC2CCN(C(=O)c3ccccc3Cl)CC2)cc1)C1CN(c2cccnn2)C1 [Example 211, N-(4-{[1-(2-chlorobenzoyl)piperidin-4-yl]oxy}phenyl)-1-(pyridazin-3-yl)azetidine-3-carboxamide]	7.50	9.10
Cc1ccsc1C(=O)N1CCC(c2ccc(NC(=O)C3CN(c4cccnc4)C3)cc2)CC1 [Example 111, N-(4-{1-[(3-methylthiophen-2-yl)carbonyl]piperidin-4-yl}phenyl)-1-(pyridin-3-yl)azetidine-3-carboxamide]	8.55	9.70
COCC(=O)N1CCC(Oc2ccc(NC(=O)C3CN(c4cccnn4)C3)cc2)CC1 [Example 246, N-(4-{[1-(methoxyacetyl)piperidin-4-yl]oxy}phenyl)-1-(pyridazin-3-yl)azetidine-3-carboxamide]	6.75	9.17
O=C(Nc1ccc(OC2CCN(C(=O)c3cccs3)CC2)cc1)C1CN(c2cccnn2)C1 [Example 249, 1-(pyridazin-3-yl)-N-(4-{[1-(thiophen-2-ylcarbonyl)piperidin-4-yl]oxy}phenyl)azetidine-3-carboxamide]	7.22	9.22
CC(C)CCC(=O)N1CCC(c2ccc(NC(=O)C3CN(c4cccnn4)C3)cc2)CC1 [Example 324, N-{4-[1-(4-methylpentanoyl)piperidin-4-yl]phenyl}-1-(pyridazin-3-yl)azetidine-3-carboxamide]	7.33	8.98
CC(C)CCN1CCC(c2ccc(NC(=O)C3CN(c4cccnc4)C3)cc2)CC1 [Example 93, N-{4-[1-(3-methylbutyl)piperidin-4-yl]phenyl}-1-(pyridin-3-yl)azetidine-3-carboxamide]	5.91	8.90
Cc1cccc(C(=O)N2CCC(c3ccc(NC(=O)C4CN(c5cccnn5)C4)cc3)CC2)c1 [Example 341, N-{4-[1-(3-methylbenzoyl)piperidin-4-yl]phenyl}-1-(pyridazin-3-yl)azetidine-3-carboxamide]	7.45	9.14
Cc1ncccc1N1CC(C(=O)Nc2ccc(C3CCN(C(=O)CC4CCCCC4)CC3)cc2)C1 [Example 179, N-{4-[1-(cyclohexylacetyl)piperidin-4-yl]phenyl}-1-(2-methylpyridin-3-yl)azetidine-3-carboxamide]	7.00	7.15
CCCC(C)CN1CCC(c2ccc(NC(=O)C3CN(c4cccnc4)C3)cc2)CC1 (centres unmarked) [Example 90, N-{4-[1-(2-methylpentyl)piperidin-4-yl]phenyl}-1-(pyridin-3-yl)azetidine-3-carboxamide]	5.85	9.04
CC(C)(O)C(=O)N1CCC(c2ccc(NC(=O)C3CN(c4cnccc4C#N)C3)cc2)CC1 [Example 97, 1-(4-cyanopyridin-3-yl)-N-{4-[1-(2-hydroxy-2-methylpropanoyl)piperidin-4-yl]phenyl}azetidine-3-carboxamide]	7.44	6.88
CC(C)(C)C(=O)N1CCC(Oc2ccc(NC(=O)C3CN(c4ccnnc4)C3)cc2)CC1 [Example 280, N-(4-{[1-(2,2-dimethylpropanoyl)piperidin-4-yl]oxy}phenyl)-1-(pyridazin-4-yl)azetidine-3-carboxamide]	6.91	7.28
O=C(Nc1ccc(OC2CN(C(=O)Cc3ccc(F)cc3)C2)cc1)C1CN(c2ccnnc2)C1 [Example 203, N-[4-({1-[(4-fluorophenyl)acetyl]azetidin-3-yl}oxy)phenyl]-1-(pyridazin-4-yl)azetidine-3-carboxamide]	7.47	7.68
O=C(Nc1ccc(OC2CCN(C(=O)C3CCC(F)(F)CC3)CC2)cc1)C1CN(c2ccnnc2)C1 [Example 270, N-[4-({1-[(4,4-difluorocyclohexyl)carbonyl]piperidin-4-yl}oxy)phenyl]-1-(pyridazin-4-yl)azetidine-3-carboxamide]	7.13	7.45
O=C(Nc1ccc(C2CCN(C(=O)Cc3ccc(F)cc3)CC2)cc1)C1CN(c2cccnn2)C1 [Example 368, N-(4-{1-[(4-fluorophenyl)acetyl]piperidin-4-yl}phenyl)-1-(pyridazin-3-yl)azetidine-3-carboxamide]	7.19	9.20
O=C(Nc1ccc(OC2CCN(C(=O)Cc3ccc(F)cc3)CC2)cc1)C1CN(c2ccnnc2)C1 [Example 276, N-[4-({1-[(4-fluorophenyl)acetyl]piperidin-4-yl}oxy)phenyl]-1-(pyridazin-4-yl)azetidine-3-carboxamide]	6.87	7.46
CCC(C)CC(=O)N1CCC(c2ccc(NC(=O)C3CN(c4cccnn4)C3)cc2)CC1 (centres unmarked) [Example 323, N-{4-[1-(3-methylpentanoyl)piperidin-4-yl]phenyl}-1-(pyridazin-3-yl)azetidine-3-carboxamide]	7.60	9.05

Compound	pIC50 [1]	pIC50 (NAMPT)
O=C(NC1CN(c2cccnc2)C1)c1ccc(OC2CCN(C(=O)CC3CCOCC3)CC2)cc1 [Example 21, N-[1-(pyridin-3-yl)azetidin-3-yl]-4-{[1-(tetrahydro-2H-pyran-4-ylacetyl)piperidin-4-yl]oxy}benzamide]	5.13	9.29
O=C(Nc1ccc(OC2CCN(C(=O)c3nccs3)CC2)cc1)C1CN(c2ccnnc2)C1 [Example 283, 1-(pyridazin-4-yl)-N-(4-{[1-(1,3-thiazol-2-ylcarbonyl)piperidin-4-yl]oxy}phenyl)azetidine-3-carboxamide]	7.14	7.49
O=C(Nc1ccc(OC2CCN(C(=O)c3ccco3)CC2)cc1)C1CN(c2cccnc2)C1 [Example 63, N-(4-{[1-(furan-2-ylcarbonyl)piperidin-4-yl]oxy}phenyl)-1-(pyridin-3-yl)azetidine-3-carboxamide]	7.28	9.29
CC(C)(O)C(=O)N1CCC(c2ccc(NC(=O)C3CN(c4cccnc4C#N)C3)cc2)CC1 [Example 2, 1-(2-cyanopyridin-3-yl)-N-{4-[1-(2-hydroxy-2-methylpropanoyl)piperidin-4-yl]phenyl}azetidine-3-carboxamide]	7.65	7.70
O=C(Nc1ccc(C2CCN(C(=O)CC3CCOCC3)CC2)cc1)C1CN(c2cccnc2)C1 [Example 25, 1-(pyridin-3-yl)-N-{4-[1-(tetrahydro-2H-pyran-4-ylacetyl)piperidin-4-yl]phenyl}azetidine-3-carboxamide]	7.55	9.22
O=C(Nc1ccc(C2CCN(C(=O)c3ccccc3)CC2)cc1)C1CN(c2cccnc2)C1 [Example 26, N-[4-(1-benzoylpiperidin-4-yl)phenyl]-1-(pyridin-3-yl)azetidine-3-carboxamide]	8.30	9.12
CCC(C)CN1CCC(Oc2ccc(NC(=O)C3CN(c4cccnc4)C3)cc2)CC1 (centres unmarked) [Example 80, N-(4-{[1-(2-methylbutyl)piperidin-4-yl]oxy}phenyl)-1-(pyridin-3-yl)azetidine-3-carboxamide]	5.80	9.16
O=C(Nc1ccc(OC2CCN(C(=O)c3cccc(OC(F)(F)F)c3)CC2)cc1)C1CN(c2cccnn2)C1 [Example 224, 1-(pyridazin-3-yl)-N-[4-({1-[3-(trifluoromethoxy)benzoyl]piperidin-4-yl}oxy)phenyl]azetidine-3-carboxamide]	6.82	8.86
O=C(Nc1ccc(C2CCN(C(=O)Cc3ccc(Cl)c(Cl)c3)CC2)cc1)C1CN(c2cccnn2)C1 [Example 374, N-(4-{1-[(3,4-dichlorophenyl)acetyl]piperidin-4-yl}phenyl)-1-(pyridazin-3-yl)azetidine-3-carboxamide]	7.62	9.01
Cc1ncccc1N1CC(C(=O)Nc2ccc(C3CCN(C(=O)CCN4CCCCC4)CC3)cc2)C1 [Example 190, 1-(2-methylpyridin-3-yl)-N-(4-{1-[3-(piperidin-1-yl)propanoyl]piperidin-4-yl}phenyl)azetidine-3-carboxamide]	5.72	6.99
O=C(Nc1ccc(C2CCN(C(=O)c3ccccc3O)CC2)cc1)C1CN(c2cccnn2)C1 [Example 342, N-{4-[1-(2-hydroxybenzoyl)piperidin-4-yl]phenyl}-1-(pyridazin-3-yl)azetidine-3-carboxamide]	7.88	9.16
O=C(Nc1ccc(C2CCN(C(=O)c3ccc(C(F)(F)F)cc3)CC2)cc1)C1CN(c2cccnn2)C1 [Example 355, 1-(pyridazin-3-yl)-N-(4-{1-[4-(trifluoromethyl)benzoyl]piperidin-4-yl}phenyl)azetidine-3-carboxamide]	6.94	9.01
CC(C)(O)C(=O)N1CCC(c2ccc(NC(=O)[C@H]3CCN(c4ccnnc4)C3)cc2)CC1 [Example 141, (3S)—N-{4-[1-(2-hydroxy-2-methylpropanoyl)piperidin-4-yl]phenyl}-1-(pyridazin-4-yl)pyrrolidine-3-carboxamide]	5.91	7.12
CCCCC(=O)N1CCC(c2ccc(NC(=O)C3CN(c4cccnc4)C3)cc2)CC1 [Example 98, N-[4-(1-pentanoylpiperidin-4-yl)phenyl]-1-(pyridin-3-yl)azetidine-3-carboxamide]	7.89	9.68
O=C(Nc1ccc(OC2CCN(C(=O)c3ccsc3)CC2)cc1)C1CN(c2cccnn2)C1 [Example 223, 1-(pyridazin-3-yl)-N-(4-{[1-(thiophen-3-ylcarbonyl)piperidin-4-yl]oxy}phenyl)azetidine-3-carboxamide]	6.82	9.02
